Measured values: paper PMC8880564, “Design, Synthesis, and Biological Evaluation of a Novel VEGFR-2 Inhibitor Based on a 1,2,5-Oxadiazole-2-Oxide Scaffold with MAPK Signaling Pathway Inhibition” (Pharmaceuticals, 2022)

Columns and labels:
cancer cells = assay: MTT anti-proliferative test of des-NO-releasing compounds; type: cell-based, human; conditions: at concentrations as high as 50 µM
Description: (§1) In addition, the morphological changes in 12b-treated cancer cell lines at concentrations of 6.25 and 12.50 µM are shown in Figure 6.
(§2) According to the procedures of Skehan et al. (with minor modifications), the cancer or normal cells were seeded in a 96-well plate (100 µL/well). After overnight incubation at 37 °C and 5% CO2, the cells were incubated with 50 µM of each tested compound or DMSO (0.5% v/v). After 48 h of incubation, MTT (3-(4,5-dimethylthiazoyl)-2,5-diphenyl-tetrazolium bromide) 5 mg/mL Phosphate-Buffered Saline (PBS) was added, and the plate was incubated for 4 h. After that, acidified sodium dodecyl sulfate (SDS) solution (10% SDS containing 0.01N HCl in 1× PBS) was used to solubilize formazan crystals. The absorbance was measured after 14 h of incubation at λ570–630 nm by a Biotek plate reader (Gen5™).

HepG2 = assay: MTT cell viability assay; type: cell-based; conditions: Homo sapiens, Liver, 48 h, ± SD of triplicates
Description: as §1, §2

MCF-7 = assay: MTT cell viability assay; type: cell-based; conditions: Homo sapiens, MCF7, Breast, 48 h, ± SD of triplicates
Description: as §1, §2

MDA-MB-231 = assay: MTT cell viability assay; type: cell-based; conditions: Homo sapiens, Breast, 48 h, ± SD of triplicates
Description: as §1, §2

HT-29 = assay: MTT cell viability assay; type: cell-based; conditions: Homo sapiens, Colon, 48 h, ± SD of triplicates
Description: as §1, §2

SKOV-3 = assay: MTT cell viability assay; type: cell-based; conditions: Homo sapiens, SK-OV-3, Ovarian, 48 h, ± SD of triplicates
Description: as §1, §2

A2780CP = assay: MTT cell viability assay; type: cell-based; conditions: Homo sapiens, A2780C/P, Ovarian, 48 h, ± SD of triplicates
Description: as §1, §2

A2780 = assay: MTT cell viability assay; type: cell-based; conditions: Homo sapiens, Ovarian, 48 h, ± SD of triplicates
Description: as §1, §2

IC50 (HepG2) | IC50 (MCF-7) | IC50 (MDA-MB-231) | IC50 (HT-29) | IC50 (SKOV-3) | IC50 (A2780CP) | IC50 (A2780) | Structure (SMILES) | inhibition of the proliferation of cancer cells (cancer cells)
– | – | – | – | – | – | – | Nc1ccc(Nc2nc(C(F)(F)F)nc3c2cnn3-c2ccc(Br)cc2)cc1 [15a, N1-(1-(4-bromophenyl)-6-(trifluoromethyl)-1H-pyrazolo[3,4-d]pyrimidin-4-yl)benzene-1,4-diamine] | did not inhibit the proliferation of cancer cells
14 ± 0.4 µM | 5.1 ± 0.4 µM | 16.6 ± 0.3 µM | 11 ± 0.2 µM | 16.9 ± 0.2 µM | 15.2 ± 0.1 µM | 10.5 ± 0.5 µM | CNC(=O)c1cc(Oc2ccc(NC(=O)Nc3ccc(Cl)c(C(F)(F)F)c3)cc2)ccn1 [Sorafenib, sorafenib, reference compound] | –
– | – | – | – | – | – | – | Cc1nn(-c2ccc(Br)cc2)c2nc(C(F)(F)F)nc(Nc3ccc(N)cc3)c12 [15b, N1-(1-(4-bromophenyl)-3-methyl-6-(trifluoromethyl)-1H-pyrazolo[3,4-d]pyrimidin-4-yl)benzene-1,4-diamine] | did not inhibit the proliferation of cancer cells
